Patent US6579868B1, “Purine derivatives and adenosine A2 receptor antagonists serving as preventives/remedies for diabetes” (Eisai Co., Ltd., priority 1998, dated 2003)
Structures can show the parent of a compound that is named as a salt.

Key:
[1] = biological target: T1, Human adenosine A2b receptor (Homo sapiens, UniProt P29275); test: Suppression of NECA-stimulated cAMP production in adenosine A2b receptor expressed CHOK1 cells; type: cell-based; conditions: NECA 30 nM
T1 construct: expressed in transfected cells; host or cells: CHOK1 cells
T1 sequence (P29275 1-332): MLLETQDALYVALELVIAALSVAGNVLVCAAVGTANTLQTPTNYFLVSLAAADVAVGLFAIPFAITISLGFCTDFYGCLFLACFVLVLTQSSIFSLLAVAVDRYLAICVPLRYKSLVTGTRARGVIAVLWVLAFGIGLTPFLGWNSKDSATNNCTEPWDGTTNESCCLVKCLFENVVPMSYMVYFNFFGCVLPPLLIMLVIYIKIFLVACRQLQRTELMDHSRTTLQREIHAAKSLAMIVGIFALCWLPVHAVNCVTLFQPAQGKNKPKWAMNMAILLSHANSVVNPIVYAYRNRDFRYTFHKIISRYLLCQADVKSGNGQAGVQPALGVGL
Experimental: Human adenosine A2b receptor cDNA was over-expressed in CHOK1 cells. […] Affinity of the test compound to the A2b receptor was evaluated in which the index used was the degree of suppression of the amount of cAMP produced by stimulation of NECA (30 nM) which was an adenosine agonist in the presence of the test compound. Thus, after washing with 2 ml/well of an incubation buffer (Krebs solution; pH7.4) twice, a pre-incubation was carried out at 0.5 ml/well for 30 minutes. […] After 15 minutes, the reaction was stopped by substituting 0.1N HCl (300 μl/well) for the reaction solution. Measurement of cAMP was carried out using an Amersham cAMP EIA Kit.
Calculation of the suppression rate of the test compound to the NECA-stimulated cAMP production was done by the following expression.
Inhibition Rate (%)=[1−{(cAMP amount in the presence of NECA and test compound-cAMP amount in the case of incubation buffer only)/(cAMP amount stimulated only by NECA-cAMP amount in the case of incubation buffer only)}]×100.
IC50 […]was calculated from the above.

[2] = test system: spontaneous diabetic mice (KK-A^y/Ta Jcl); test: Action to hyperglycemia of spontaneous diabetic mice (KK-A^y/Ta Jcl), single oral administration; type: in vivo, mouse
Experimental: Animals: Five male KK-A^y/Ta Jcl mice for each group (purchased from Nippon Clair)
Preparation and Administration of Test Compound: A test compound in a dose as shown in Table 2 was suspended in a 0.5% aqueous solution of methyl cellulose and was orally administered in a dose of 10 ml/kg.
Collection of Blood Samples and Determination of Blood Sugar: Blood was collected from tail vein immediately before administration of the test compound and also five hours after the administration and blood sugar was determined.
(§1) Method: Tail vein of a mouse was injured by a razor without an anesthetization to bleed slightly. The blood (15 μl) was collected and immediately mixed with 135 μl of a 0.6 M perchloric acid. Glucose in the supernatant obtained by a centrifugal separation (at 1500 g for 10 minutes at 4° C. using a cooling centrifuge GS-6KR of Beckmann) was determined by a Glucose CII Test Wako (Wako Pure Chemicals).
The result is shown in terms of “(% ratio of the blood sugar after 5 hours from the administration to the blood sugar before the administration)±(standard error)”. The data were subjected to a one-way layout analysis of variance and then subjected to a multiple comparison of a Dunnett type. The case where p<0.05 was judged to be that a significant difference was available.
Animals: Five male KK-A^y/Ta Jcl mice for each group (introduced from Nippon Clair)
Preparation and Administration of Test Compound: A test compound in a dose shown in Table 6 was suspended in a 0.5% aqueous solution of methyl cellulose and was orally administered in a dose of 10 ml/kg.
as §1, with “vein of mouse was” for “vein of a mouse was”
The result is shown in terms of “(% ratio of the blood sugar after 5 hours from the administration to the blood sugar before the administration)±(standard error)”. The data were subjected to a one-way layout analysis of variance and then subjected to a multiple comparison of Dunnett type. The case where p<0.05 was judged that a significant difference was available.

[3] = Glucose tolerance test (impaired glucose tolerance); conditions: in vivo
[4] = biological target: T2, Human adenosine A1 receptor (Homo sapiens, UniProt P30542); test: Adenosine A1 receptor binding experiment (3H-CCPA); conditions: human A1 receptor expressed in CHOK1 membranes
T2 construct: expressed in transfected cells; host or cells: CHOK1 cells (membrane specimen)
T2 sequence (P30542 1-326): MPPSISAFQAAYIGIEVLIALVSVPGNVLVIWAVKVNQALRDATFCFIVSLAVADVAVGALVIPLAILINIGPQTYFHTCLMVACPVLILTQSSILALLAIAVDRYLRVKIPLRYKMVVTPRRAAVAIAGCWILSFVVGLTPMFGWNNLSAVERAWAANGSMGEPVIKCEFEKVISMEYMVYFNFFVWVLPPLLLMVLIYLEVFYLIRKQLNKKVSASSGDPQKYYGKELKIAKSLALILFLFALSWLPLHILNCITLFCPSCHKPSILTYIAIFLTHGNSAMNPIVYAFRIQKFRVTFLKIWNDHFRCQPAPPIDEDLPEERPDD
Experimental: Human adenosine A1 receptor cDNA was subjected to an over-expression in CHOK1 cells and its membrane specimen was suspended in an incubation buffer (20 mM HEPES, 10 mM MgCl2 and 100 mM NaCl; pH 7.4) to make the concentration 66.7 μg/ml. To 0.45 ml of this membrane specimen were added 0.025 ml of tritium-labeled chlorocyclopentyl adenosine (60 nM ^3H-CCPA; 30 Ci/mmol) and 0.025 ml of the compound to be tested. The solution of the compound to be tested was prepared in such a manner that, firstly, the compound was dissolved in DMSO to make 20 mM concentration and then successively diluted each 10-fold using an incubation buffer. The mixture was allowed to stand at 30° C. for 120 minutes, subjected to a quick suction on a glass fiber filter (GF/B; manufactured by Whatman) and immediately washed with 5 ml of ice-cooled 50mM Tris-HCl buffer twice. After that, the glass fiber filter was transferred to a vial bottle, a scintillator was added and the radioactivity on the filter was measured by a liquid scintillation counter. Calculation of the inhibition rate of the test compound to the receptor bond (^3H-CCPA) was carried out by the following expression and, based upon that, IC50 was calculated.
Inhibition Rate (%)=[1−{(Binding amount in the presence of drug-Non-specific binding amount)/(Total binding amount-Non-specific binding amount)}]×100
Total binding amount is a ^3H-CCPA binding radioactivity in the absence of the test compound.
Non-specific binding amount is a ^3H-CCPA binding radioactivity in the presence of 100 μM of RPIA.
Binding amount in the presence of drug is a ^3H-CCPA binding radioactivity in the presence of the test compound of various concentrations.
The inhibition constant (Ki value) in Table was calculated from Cheng-Prusoff's expression.

adenosine A2a receptor = biological target: T3, adenosine A2a receptor (Homo sapiens, UniProt P29274); test: Adenosine A2a receptor binding experiment (3H-CGS21680); conditions: A2a receptor membrane specimen
T3 construct: purchased Receptor Biology, Inc
T3 sequence (P29274 whole entry): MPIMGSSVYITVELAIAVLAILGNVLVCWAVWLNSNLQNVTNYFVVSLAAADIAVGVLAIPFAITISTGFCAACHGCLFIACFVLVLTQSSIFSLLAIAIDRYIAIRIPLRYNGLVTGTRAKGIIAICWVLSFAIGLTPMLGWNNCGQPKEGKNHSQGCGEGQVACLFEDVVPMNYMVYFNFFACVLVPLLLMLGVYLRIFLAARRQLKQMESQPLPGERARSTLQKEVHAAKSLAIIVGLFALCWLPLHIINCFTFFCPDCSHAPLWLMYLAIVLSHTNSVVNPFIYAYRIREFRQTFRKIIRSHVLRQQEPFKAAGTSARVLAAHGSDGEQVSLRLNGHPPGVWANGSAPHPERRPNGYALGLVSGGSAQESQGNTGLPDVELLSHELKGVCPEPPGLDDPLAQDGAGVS
Experimental: A membrane specimen prepared by an over-expression of adenosine A2a receptor was purchased from Receptor Biology, Inc. and adenosine A2a receptor binding experiments were carried out using that. […] To 0.45 ml of this membrane specimen were added 0.025 ml of tritium-labeled ^3H-CGS21680 (500 nM; 30 Ci/mmol) and 0.025 ml of the test compound. The solution of the test compound was prepared in such a manner that, firstly, the compound was dissolved in DMSO to make 20 mM concentration and then successively diluted each 10-fold using an incubation buffer. […] After that, the glass fiber filter was transferred to a vial bottle, a scintillator was added and the radioactivity on the filter was measured by a liquid scintillation counter. Calculation of the inhibition rate of the test compound to the receptor bond (^3H-CGS21680) of A2a was carried out by the following expression and, based upon that, IC50 was calculated. […]
Total binding amount is a ^3H-CGS21680 binding radioactivity in the absence of the test compound.
Non-specific binding amount is a ^3H-CGS21680 binding radioactivity in the presence of 100 μM of RPIA.
Binding amount in the presence of drug is a ^3H-CGS21680 binding radioactivity in the presence of the test compound of various concentrations.

With `CCn1c(-c2cccc(F)c2)nc2c(N)nc(C#CC3(O)CCC3)nc21` [Compound A] the IC50 [1] was 28 nM and the “% ratio of the blood sugar after 5 hours from the administration to the blood sugar before the administration ± standard error” value ([2]; Table 6-1, 10 mg/kg oral, administered in a form of sulfate, solvent group 72.4 ± 4.4) was 47.8 ± 4.8%.

For `Cn1c(-c2cccc(F)c2)nc2c(N)nc(C#CC3(O)CCCC3)nc21` [Compound B], the IC50 [1] was 70 nM.

In the case of `Fc1cccc(-c2nc3cccnc3n2-c2ccncc2)c1` [Compound C, 2-(3-Fluorophenyl)-(4-pyridyl)-3H-imidazo[4,5-b]pyridine Hydrochloride, reference compound], the IC50 [1] is reported as 100 nM and the “% ratio of the blood sugar after 5 hours from the administration to the blood sugar before the administration ± standard error” value ([2]; Table 6-2, 30 mg/kg oral, solvent group 69.8 ± 2.3) is reported as 48.5 ± 3.4%.

With `O=C(/C=C/c1c(-c2ccccc2)nn2ccccc12)N1CCCC[C@@H]1CCO` [FK453, reference compound] the “glucose tolerance improving action in glucose tolerance test (in words)” value [3] was “no glucose tolerance improving action was noted” and the “hypoglycemic action in the present diabetic models (in words)” value ([2]; even at the dose of 100 mg/kg) was “no hypoglycemic action was noted”.

Compound `CCCn1c(=O)c2c(nc(/C=C/c3ccc(OC)c(OC)c3)n2C)n(CCC)c1=O` [KF17837] has an IC50 [1] of 1360 nM.

For `CCn1c(-c2cccc(F)c2)nc2c(N)nc(C#CC3(O)CCC3)nc21` [drawing 259], the Ki [4] was 24 nM and the Ki (adenosine A2a receptor) was 2 nM.

In the case of `Fc1cccc(-c2nc3cccnc3n2-c2ccncc2)c1` [drawing 261], the Ki [4] is reported as 54 nM and the Ki (adenosine A2a receptor) is reported as 750 nM.
